Results taken from paper PMC11078746 (Nature, 2024).

Tests used:
[1] = test system: WRN protein in MSI and MSS cells; test: WRN degradation (immunoblot, ELISA); type: cell-based, human
Experimental: A list of all of the antibodies is provided in Supplementary Table 2. […] The plates were washed in PBS and 200 µl per well of blocking reagent added (PBS, 0.05% Tween-20, 5% skimmed milk), and the plates were incubated for a minimum of 2 h at room temperature. […] The plates were then washed and 50 µl of secondary antibody per well diluted in blocking buffer was added and the plates were incubated overnight at 4 °C. The next day, 50 µl of tertiary antibody was added per well buffer and the plates were incubated for 2 h at room temperature. […] The plates were shaken and luminescence was detected immediately on the Synergy HT microplate reader.

[2] = molecular target: T1, WRN D1D2RH (Asn517–Pro1238) (Homo sapiens, UniProt Q14191); test: Cy5-ATPγS binding assay using TR-FRET (ATP binding)
T1 construct: 10 nM WRN D1D2RH (protein construct (Asn517–Pro1238)); His tag (N, cleaved yes); ZZ tag (N, cleaved yes); made in house; host or cells: Sf21 insect cells (baculovirus)
T1 sequence (Q14191 517-1238): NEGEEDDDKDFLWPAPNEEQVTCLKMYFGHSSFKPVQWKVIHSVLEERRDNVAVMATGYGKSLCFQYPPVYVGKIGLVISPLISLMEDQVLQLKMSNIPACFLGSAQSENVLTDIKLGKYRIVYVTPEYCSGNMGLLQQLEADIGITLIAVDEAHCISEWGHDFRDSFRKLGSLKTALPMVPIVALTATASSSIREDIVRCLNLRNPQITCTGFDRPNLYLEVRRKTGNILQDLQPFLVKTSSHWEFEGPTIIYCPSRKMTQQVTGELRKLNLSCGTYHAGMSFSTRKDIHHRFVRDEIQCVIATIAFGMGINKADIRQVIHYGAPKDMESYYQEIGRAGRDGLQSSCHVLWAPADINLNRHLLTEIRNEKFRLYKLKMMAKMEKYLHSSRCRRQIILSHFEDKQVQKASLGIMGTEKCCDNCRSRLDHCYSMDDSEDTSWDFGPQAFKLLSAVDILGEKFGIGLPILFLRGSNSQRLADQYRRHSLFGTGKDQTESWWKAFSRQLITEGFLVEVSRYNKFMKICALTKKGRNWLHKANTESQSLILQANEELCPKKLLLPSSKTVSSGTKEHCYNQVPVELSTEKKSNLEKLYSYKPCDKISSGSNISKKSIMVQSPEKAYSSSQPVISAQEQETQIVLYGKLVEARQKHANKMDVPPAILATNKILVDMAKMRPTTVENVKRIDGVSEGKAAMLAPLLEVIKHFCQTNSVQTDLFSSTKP
Experimental: A ratio of F665 over F620 was then calculated to determine the FRET efficiency in each well. This assay protocol was used during hit optimization to build the initial structure–activity relationship and was also adapted to 1,536-well plates for screening purposes.

[3] = molecular target: T1, WRN D1D2RH (Asn517–Pro1238); test: ATPase activity analysis, ADP-Glo; type: biochemical
Experimental: (§1) We used an ADP-Glo assay kit (Promega) to monitor ATP hydrolysis. A 45-oligonucleotide with the following sequence: […], referred to as FLAP26, as described previously[45] was purchased from IDT (Integrated DNA Technologies) and used as a DNA substrate. […] The reaction was started by addition of 2.5 μl of ssDNA substrate at 0.4 nM and incubated for 30 min at room temperature. The reaction was stopped with the addition of 5 μl of the first ADP-Glo reagent and incubated for 1 h to remove the excess amount of ATP. Then, 10 μl of ATP detection reagent was added and incubated for an additional hour before reading. The luminescence output was recorded using the Pherastar reader, with a 5 min delay before reading. Each concentration of compounds was tested in duplicates in the assay plate. The compound potency (IC50 value) was determined using custom software (Novartis Helios software application) with a four-parameter sigmoid Hill-curve model. After normalization of activity values for the wells to percentage inhibition (percentage inhibition = [(high control activity − sample activity)/(high control activity − low control activity)] × 100), IC50 fitting was performed from the duplicate determinations present on each plate.

RecQ1 = molecular target: T2, RecQ1 (Homo sapiens, UniProt P46063); test: RecQ selectivity ATPase assay; type: biochemical
T2 construct: human RecQ1-D1D2 (UniProt: P46063, Asp62–Ser482); His tag (N); made in house; host or cells: E. coli BL21(DE3), by the 'analogous procedure'
T2 sequence (P46063 62-482): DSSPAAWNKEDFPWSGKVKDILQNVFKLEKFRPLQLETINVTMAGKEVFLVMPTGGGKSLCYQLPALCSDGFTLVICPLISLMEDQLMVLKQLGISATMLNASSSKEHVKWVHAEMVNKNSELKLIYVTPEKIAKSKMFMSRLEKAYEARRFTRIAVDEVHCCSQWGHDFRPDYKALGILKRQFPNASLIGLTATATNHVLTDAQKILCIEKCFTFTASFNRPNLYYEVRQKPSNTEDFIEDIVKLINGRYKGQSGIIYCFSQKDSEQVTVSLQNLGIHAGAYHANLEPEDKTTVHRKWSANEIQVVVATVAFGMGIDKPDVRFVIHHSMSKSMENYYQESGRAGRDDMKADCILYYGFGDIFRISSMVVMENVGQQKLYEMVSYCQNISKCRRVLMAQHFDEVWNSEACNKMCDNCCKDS
Experimental: (§2) DNA sequence allowing expression of human BLM-D1D2RH (UniProt P54132: Lys640–Gly1298) fused at the amino-terminal end to His tag followed by TEV-cleavage site, was inserted into a pET-derived vector. Protein expression was performed in BL21(DE3) cells after IPTG induction. Cells were collected and resuspended in lysis buffer (50 mM NaH2PO4, 300 mM NaCl, 1 mM TCEP, 20 mM imidazole, pH 8.0) supplemented with 2 mM MgCl2, benzonase and 0.5 mM AEBSF. Cells were lysed with an Emulsiflex C3 homogenizer. After ultracentrifugation, the lysate was loaded onto a HisTrap HP column. Bound protein was eluted with an imidazole gradient in lysis buffer. The amino-terminal tag was cleaved with TEV protease. Cleaved protein was loaded on Resource S ion-exchange column and eluted with a NaCl gradient in IEX buffer (20 mM Tris, 1 mM TCEP, 10% glycerol, 20 mM NaCl, pH 7.4). As a final step, BLM-D1D2RH protein was concentrated and loaded onto the Superdex 75 gel-filtration column pre-equilibrated with SEC buffer (50 mM Tris, 150 mM NaCl, 10% glycerol, pH 7.4). Eluted target protein was concentrated and frozen on dry ice. An analogous procedure was used for the expression and purification of human RecQ1-D1D2 (UniProt: P46063, Asp62–Ser482) and Human RecQ5-D1D2 (UniProt: O94762, Asp11–Trp453) proteins.
as §1
(§3) The same ATPase assay protocol was used with the three other RecQ protein constructs to assess the selectivity over WRN. Time-course experiments were performed to determine the best enzymatic assay conditions for each RecQ protein. The experiments were run as described above with 10 nM RecQ1 protein construct with 10 nM ssDNA substrate, 2 nM BLM protein construct with 0.2 nM ssDNA substrate and 0.5 nM RecQ5 protein construct with 2 nM ssDNA substrate, respectively.

RecQ5 = molecular target: T3, RecQ5 (Homo sapiens, UniProt O94762); test: RecQ selectivity ATPase assay; type: biochemical
T3 construct: Human RecQ5-D1D2 (UniProt: O94762, Asp11–Trp453); His tag (N); made in house; host or cells: E. coli BL21(DE3), by the 'analogous procedure'
T3 sequence (O94762 11-453): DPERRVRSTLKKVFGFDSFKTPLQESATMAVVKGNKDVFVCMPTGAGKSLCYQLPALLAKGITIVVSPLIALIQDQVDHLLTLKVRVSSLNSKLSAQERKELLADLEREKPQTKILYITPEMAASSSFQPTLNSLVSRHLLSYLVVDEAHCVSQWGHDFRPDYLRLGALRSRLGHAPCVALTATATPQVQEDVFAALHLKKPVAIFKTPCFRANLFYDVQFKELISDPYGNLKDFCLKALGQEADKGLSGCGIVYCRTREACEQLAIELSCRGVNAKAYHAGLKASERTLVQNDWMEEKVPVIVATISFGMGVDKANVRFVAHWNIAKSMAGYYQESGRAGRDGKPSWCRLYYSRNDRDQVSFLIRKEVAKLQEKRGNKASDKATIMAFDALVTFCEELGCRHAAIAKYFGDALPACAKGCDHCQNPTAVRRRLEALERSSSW
Experimental: as §2, §1, §3

logD / logP = type: physicochemical; details: 1-octanol/water, pH 7.4, 1-octanol and water at pH 7.4
MDCK LE permeability = type: in vitro ADME, canine; details: dog, Fig. 1b
Rat PK = type: in vivo
Experimental: PK parameters were determined by non-compartmental analysis. Intravenous bolus studies in mouse, rat and dog were performed at 1, 1 and 0.1 mg per kg respectively (Extended Data Table 1).

WRN D1D2 C727A = molecular target: T4, WRN D1D2 C727A (Homo sapiens, UniProt Q14191, C727A); test: ATPase assay; details: read-out: Biochemical IC50 ATPase WRN D1D2 C727A
T4 construct: the minimal D1–D2 helicase core (WRN 517–945)
T4 sequence (Q14191 517-945 C727A): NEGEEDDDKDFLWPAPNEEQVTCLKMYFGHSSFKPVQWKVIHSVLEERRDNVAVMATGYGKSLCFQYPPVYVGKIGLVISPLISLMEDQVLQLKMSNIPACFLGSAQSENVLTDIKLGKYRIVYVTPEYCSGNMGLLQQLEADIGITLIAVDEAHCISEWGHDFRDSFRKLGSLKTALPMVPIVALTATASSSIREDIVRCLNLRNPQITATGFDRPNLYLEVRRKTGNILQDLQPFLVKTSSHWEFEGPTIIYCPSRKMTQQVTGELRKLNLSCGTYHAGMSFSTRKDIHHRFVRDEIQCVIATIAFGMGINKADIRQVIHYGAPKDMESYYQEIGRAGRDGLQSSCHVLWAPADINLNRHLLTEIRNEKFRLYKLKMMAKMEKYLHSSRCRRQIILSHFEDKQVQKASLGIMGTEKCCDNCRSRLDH
Experimental: as §1

WRN D1D2 C727S = molecular target: T5, WRN D1D2 C727S (Homo sapiens, UniProt Q14191, C727S); test: ATPase assay; details: read-out: Biochemical IC50 ATPase WRN D1D2 C727S
T5 construct: the minimal D1–D2 helicase core (WRN 517–945)
T5 sequence (Q14191 517-945 C727S): as the sequence (Q14191 517-945 C727A) above, with A211S counted along it
Experimental: as §1

[4] = molecular target: T6, WRN D1D2 WT (WRN 517–945) (Homo sapiens, UniProt Q14191); test: ATPase assay; details: read-out: Biochemical IC50 ATPase WRN D1D2 WT
T6 construct: the minimal D1–D2 helicase core (WRN 517–945)
T6 sequence (Q14191 517-945): as the sequence (Q14191 517-945 C727A) above, with A211C counted along it
Experimental: as §1

WRN full length = molecular target: T7, WRN full length (Homo sapiens, UniProt Q14191); test: ATPase assay; details: read-out: Biochemical IC50 ATPase WRN full length
T7 construct: ATPase WRN full length: 0.02; made in house
T7 sequence (Q14191 whole entry): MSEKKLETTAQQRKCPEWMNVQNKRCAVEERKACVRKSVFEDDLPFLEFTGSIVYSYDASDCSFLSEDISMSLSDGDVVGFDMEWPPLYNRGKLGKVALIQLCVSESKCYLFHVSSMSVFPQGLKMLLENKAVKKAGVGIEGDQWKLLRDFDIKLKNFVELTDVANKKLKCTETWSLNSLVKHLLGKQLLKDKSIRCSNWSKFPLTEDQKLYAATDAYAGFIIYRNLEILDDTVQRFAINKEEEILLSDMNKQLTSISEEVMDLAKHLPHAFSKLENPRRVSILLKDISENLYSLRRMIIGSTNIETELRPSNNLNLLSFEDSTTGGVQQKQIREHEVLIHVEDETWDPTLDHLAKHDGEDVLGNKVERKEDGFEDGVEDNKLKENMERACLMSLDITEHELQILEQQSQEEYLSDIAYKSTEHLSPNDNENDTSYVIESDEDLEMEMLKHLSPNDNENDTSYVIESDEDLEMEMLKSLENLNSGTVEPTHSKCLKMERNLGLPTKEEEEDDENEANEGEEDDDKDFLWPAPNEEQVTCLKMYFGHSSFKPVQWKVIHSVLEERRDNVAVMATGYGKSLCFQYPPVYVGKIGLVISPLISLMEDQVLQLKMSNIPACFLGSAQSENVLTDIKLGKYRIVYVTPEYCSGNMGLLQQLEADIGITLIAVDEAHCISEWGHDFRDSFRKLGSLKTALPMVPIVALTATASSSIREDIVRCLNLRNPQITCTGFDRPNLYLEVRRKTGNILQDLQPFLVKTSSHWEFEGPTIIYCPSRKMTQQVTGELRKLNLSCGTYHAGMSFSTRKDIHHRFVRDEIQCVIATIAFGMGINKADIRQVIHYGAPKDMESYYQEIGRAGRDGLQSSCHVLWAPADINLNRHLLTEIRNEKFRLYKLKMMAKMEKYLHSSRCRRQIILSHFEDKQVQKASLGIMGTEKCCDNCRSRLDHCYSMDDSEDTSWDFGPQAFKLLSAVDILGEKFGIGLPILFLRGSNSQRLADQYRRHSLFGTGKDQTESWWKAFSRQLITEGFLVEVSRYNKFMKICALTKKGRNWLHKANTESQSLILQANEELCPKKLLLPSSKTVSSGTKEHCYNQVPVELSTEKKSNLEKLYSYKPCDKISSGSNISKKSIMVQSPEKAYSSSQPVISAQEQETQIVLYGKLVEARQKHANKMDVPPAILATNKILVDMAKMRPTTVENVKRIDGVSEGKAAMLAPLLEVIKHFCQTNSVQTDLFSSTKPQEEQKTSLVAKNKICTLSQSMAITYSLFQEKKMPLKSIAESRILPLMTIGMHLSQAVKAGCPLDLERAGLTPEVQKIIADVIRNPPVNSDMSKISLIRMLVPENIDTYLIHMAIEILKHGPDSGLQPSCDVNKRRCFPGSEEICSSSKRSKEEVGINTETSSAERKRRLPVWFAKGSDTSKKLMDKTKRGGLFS
Experimental: as §1

WRN (D1D2RH) = molecular target: T8, WRN (D1D2RH) (Homo sapiens, UniProt Q14191); test: Radioactive binding assay using an SPA (saturation binding); details: 10 nM WRN
T8 construct: N-terminal Avi Tag-WRN(Asn517–Pro1238)
T8 sequence (Q14191 517-1238): as the sequence (Q14191 517-1238) above
Experimental: A total of 20 μl N-terminal Avi tag-WRN protein (Asn517-Pro1238) in 30 mM Tris pH 7.5, 30 mM NaCl, […], 0.02% BSA, 0.1% Pluronic F127, containing or not a fivefold higher concentration of dsDNA as compared to protein concentration, were incubated with 20 μl [^3H]-probe 6 (Extended Data Fig. 2f) for 1 h at room temperature. Then, 10 μl Streptavidin-coated PVT scintillation proximity assay (SPA) beads (Perkin Elmer, RPNQ0009) were added and the plate was read after 30 min in a TopCount luminescence reader (1 min, delay,1 min per well). The final assay concentrations were 10 nM WRN, 50 nM dsDNA (for the condition with dsDNA), a concentration range of radioligand as shown in the graphs and 50 μg per well of PVT SPA beads. The dsDNA was the same substrate as used in the DNA-unwinding assay (without labels).

SW48 xenografts = test: SW48 xenograft efficacy, HRO761, irinotecan and combination; type: in vivo, mouse; details: Irinotecan 60mg/kg
Experimental: All animal studies were conducted in accordance with ethics and procedures covered by permit BS-2275 and BS-1975 issued by the Kantonales Veterinäramt Basel-Stadt and in strict adherence to guidelines of the Eidgenössisches Tierschutzgesetz and the Eidgenössische Tierschutzverordnung, Switzerland. All animal studies were approved by the internal ethics committee. All animals had access to food and water ad libitum and were identified with transponders. They were housed in a specific-pathogen-free facility in IVC racks under a 12 h–12 h light–dark cycle. To establish cell-line-derived xenograft models, 6–7-week-old female athymic nude (Crl:NU(NCr)-Foxn1^nu) or SCID-BEIGE (CB17.Cg-PrkdcscidLystbg-J/Crl) mice from Charles River were engrafted subcutaneously with 5 million tumour cells in HBSS (H6648, Sigma-Aldrich). For SNU-407, Lovo, IM95, RL95.2, Ishikawa and IGROV-1, the cells were concentrated in 50% Matrigel (354234, Corning). Patient-derived xenografts were induced and expanded by transplantation as previously described. […] For the efficacy experiment, mice were randomized into groups (n = 5–6) for a mean tumour size of 100–150 mm^3. […] Blood samples were collected on day 7 and 91. […] Tumour responses are reported with the measures of tumour volumes from the treatment start. […] Animals were randomized (n = 3) and tumour samples were collected at 0, 1, 4, 8 and 24 h on the first day and then collected 4 h after the last treatment on day 3, 8, 10, 14 (including a 24 h timepoint), 17 and 21. Tumours were excised, weighed, either frozen in liquid nitrogen and cryogenic dry pulverized with the CryoPrep system (model CP-02, Covaris) or processed to FFPE after fixation. […] On day 12, blood samples were collected for PK analysis. On the last day (3 h after the last treatment), tumours were excised, weighed, frozen in liquid nitrogen and cryogenic dry pulverized for PD analysis.

[5] = author rebuttal, compound numbers of an earlier manuscript version, read-out: Cy5-ATPγS binding assay in TR-FRET - IC50

For CC[C@@]1(O)C(=O)OCc2c1cc1n(c2=O)Cc2cc3ccccc3nc2-1 [camptothecin, reference compound], the “WRN degradation, dependence on MSI/MSS status” value [1] was “irrespective of their MSI/MSS status”.
For Cc1cccc(NC(=O)Cn2c(C)cc(=O)n3nc(-c4cccs4)nc23)c1C [compound 1], the IC50 ([2]; WRN D1D2RH, Fig. 1b, Extended Data Fig. 2b, read-out: ATP binding IC50) was 3000 nM, the IC50 [2, 5] was 3300 nM and the IC50 ([3]; Fig. 1b, ATP concentration not given, read-out: ATPase IC50) was 22000 nM.
In the case of Cc1c(N2CCN(C(=O)c3c(F)ccc(F)c3O)CC2)c(=O)n2nc(C3=CCOCC3)nc2n1CC(=O)Nc1ccc(C(F)(F)F)cc1 [compound 2], the IC50 [2, 5] is reported as 9 nM, the IC50 (RecQ1) is reported as over 100000 nM and the IC50 (RecQ5) is reported as over 100000 nM. For the same compound, the logD (logD / logP) was 3.7, the Papp (MDCK LE permeability) was 0.2 ×10⁻⁶ cm/s and the “Rat PK, oral bioavailability (F)” value (Rat PK) was 0 % F.
With CC(=O)N1CCN(c2c(C)n(CC(=O)Nc3ccc(Cl)cc3)c3nc(N4CCN(C(=O)OC(C)(C)C)CC4)nn3c2=O)CC1 [compound 5] the IC50 [2, 5] was 13 nM, the IC50 ([3]; Extended Data Fig. 2b, read-out: Biochemical IC50 ATPase WRN D1D2RH) was 270 nM and the “mode of action with regard to DNA” value ([3]; KDNA determination, 0.5 nM WRN D1D2RH, 100 µM ATP) was “non-competitive mode of action”. For the same compound, the IC50 (WRN D1D2 C727A) was 1100 nM, the IC50 (WRN D1D2 C727S) was 25000 nM and the IC50 [4] was 250 nM. The IC50 (WRN full length) was 110 nM.
[3H]c1cc(C(F)(F)F)cc([3H])c1NC(=O)Cn1c(C)c(N2CCN(C(C)=O)CC2)c(=O)n2nc(N3CCN(C(C)=O)CC3)nc12 [compound 6] gave a Kd (WRN (D1D2RH); in absence of dsDNA) of 10 nM and a Kd (WRN (D1D2RH); in presence of 50 nM dsDNA) of 14 nM.
In the case of CCc1c2c(nc3ccc(OC(=O)N4CCC(N5CCCCC5)CC4)cc13)-c1cc3c(c(=O)n1C2)COC(=O)[C@]3(O)CC [irinotecan, reference compound], the “Mean TVol (mm3)” value (SW48 xenografts; day 0 post 1st dose) is reported as 254.88 mm3, the “Mean TVol (mm3)” value (SW48 xenografts; day 4 post 1st dose) is reported as 329.29 mm3 and the “Mean TVol (mm3)” value (SW48 xenografts; day 7 post 1st dose) is reported as 550.55 mm3. The “Mean TVol (mm3)” value (SW48 xenografts; day 11 post 1st dose) was 635.45 mm3, the “Mean TVol (mm3)” value (SW48 xenografts; day 14 post 1st dose) was 640.95 mm3 and the “Mean TVol (mm3)” value (SW48 xenografts; day 18 post 1st dose) was 669.98 mm3. For the same compound, the “Mean TVol (mm3)” value (SW48 xenografts; day 21 post 1st dose) was 833.51 mm3.
